From patent US20250206773A1, “FORMS AND COMPOSITIONS OF SODIUM CHENODEOXYCHOLATE” (Syntis Bio, Inc., priority 2022, published 2025)
Where two headings read alike, the source gives them in different places.

Assay type: physicochemical
Protocol: HPLC analysis was carried out on an Agilent 1260 Infinity chromatograph, using a Hichrom C18 column 100×4.6 mm, 3.5 m, at 40° C. Method details were as follows:
Around 10 mg of NaCDC Form B was weighed into clear HPLC vials and the selected solvents (500 μL) were added to the vials. Experiments ST07, 09, 11, 13, 15, 17, 19 and 21 were kept stirring for 24 h at 30° C. and 60° C., while samples were taken after 4 h and 24 h for HPLC analysis. Subsequently, the same experiments were evaporated at 30° C. for 24 h under reduced pressure (21-22 mbar), and the solids were evaluated by HPLC and XRPD. Separately, the solutions and slurries from experiments ST10, 12, 14, 16, 18, 20 and 22 were stirred for 24 h at 30° C. and 60° C. (no samples were taken) and evaporated at 60° C. for 24 h under reduced pressure (20-21 mbar). The recovered materials were sampled for HPLC and XRPD analyses.

[1] = ST13: Methanol, solution, 60° C.
[2] = ST17: n-Heptane, slurry, 60° C.

HPLC purities throughout the stability tests: ≥ 86.1% | form stability in slurry experiments (XRPD): stable | stability in solution and/or slurry: remained stable | HPLC (%) at 212 nm (after evap.) (ST07: Water solution RT 24 h, evaporated at 30° C. 24 h): 97.8% | XRPD (after evap.) (ST07: Water solution RT, evaporated at 30° C.): Am. | HPLC (%) at 212 nm (before evap.) 4 h (ST07: Water, solution, RT): 100.0% | HPLC (%) at 212 nm (before evap.) 24 h (ST07: Water, solution, RT): 96.2% | HPLC (%) at 212 nm (after evap.) (ST08: Water solution RT 24 h, evaporated at 60° C. 24 h, listed as NaCDC Form B): 84.6% | HPLC (%) at 212 nm (after evap.) (ST08: Water solution RT 24 h, evaporated at 60° C. 24 h, listed as starting material): around 84.5% | XRPD (after evap.) (ST08: Water solution RT, evaporated at 60° C.): Am. | HPLC (%) at 212 nm (after evap.) (ST09: Water solution 60° C. 24 h, evaporated at 30° C. 24 h): 95.7% | XRPD (after evap.) (ST09: Water solution 60° C., evaporated at 30° C.): Am. | HPLC (%) at 212 nm (before evap.) 4 h (ST09: Water, solution, 60° C.): 100.0% | HPLC (%) at 212 nm (before evap.) 24 h (ST09: Water, solution, 60° C.): 96.6% | HPLC (%) at 212 nm (after evap.) (ST10: Water solution 60° C. 24 h, evaporated at 60° C. 24 h): 90.0% | XRPD (after evap.) (ST10: Water solution 60° C., evaporated at 60° C.): Am. | HPLC (%) at 212 nm (after evap.) (ST11: Methanol solution RT 24 h, evaporated at 30° C. 24 h): 87.1% | XRPD (after evap.) (ST11: Methanol solution RT, evaporated at 30° C.): Am. | HPLC (%) at 212 nm (before evap.) 4 h (ST11: Methanol, solution, RT): 91.4% | HPLC (%) at 212 nm (before evap.) 24 h (ST11: Methanol, solution, RT): 93.5% | HPLC (%) at 212 nm (after evap.) (ST12: Methanol solution RT 24 h, evaporated at 60° C. 24 h): 90.5% | XRPD (after evap.) (ST12: Methanol solution RT, evaporated at 60° C.): Am. | HPLC (%) at 212 nm (after evap.) (ST13: Methanol solution 60° C. 24 h, evaporated at 30° C. 24 h): no peak~ | XRPD (after evap.) (ST13: Methanol solution 60° C., evaporated at 30° C.): Am. | HPLC (%) at 212 nm (before evap.) 4 h [1]: 94.8% | HPLC (%) at 212 nm (before evap.) 24 h [1]: 90.3% | HPLC (%) at 212 nm (after evap.) (ST14: Methanol solution 60° C. 24 h, evaporated at 60° C. 24 h): 92.5% | XRPD (after evap.) (ST14: Methanol solution 60° C., evaporated at 60° C.): Am. | HPLC (%) at 212 nm (after evap.) (ST15: n-Heptane slurry RT 24 h, evaporated at 30° C. 24 h): no peak~ | HPLC (%) at 212 nm (before evap.) 4 h (ST15: n-Heptane, slurry, RT): 89.9% | HPLC (%) at 212 nm (before evap.) 24 h (ST15: n-Heptane, slurry, RT): 100.0% | HPLC (%) at 212 nm (after evap.) (ST16: n-Heptane slurry RT 24 h, evaporated at 60° C. 24 h, listed as NaCDC Form B): 84.5% | HPLC (%) at 212 nm (after evap.) (ST16: n-Heptane slurry RT 24 h, evaporated at 60° C. 24 h, listed as starting material): around 84.5% | HPLC (%) at 212 nm (after evap.) (ST17: n-Heptane slurry 60° C. 24 h, evaporated at 30° C. 24 h): 93.6% | HPLC (%) at 212 nm (before evap.) 4 h [2]: 91.5% | HPLC (%) at 212 nm (before evap.) 24 h [2]: 91.4% | HPLC (%) at 212 nm (after evap.) (ST18: n-Heptane slurry 60° C. 24 h, evaporated at 60° C. 24 h): 90.4% | HPLC (%) at 212 nm (after evap.) (ST19: MEK slurry RT 24 h, evaporated at 30° C. 24 h): 74.1% | HPLC (%) at 212 nm (before evap.) 4 h (ST19: MEK, slurry, RT): 100.0% | HPLC (%) at 212 nm (before evap.) 24 h (ST19: MEK, slurry, RT): 97.7% | HPLC (%) at 212 nm (after evap.) (ST20: MEK slurry RT 24 h, evaporated at 60° C. 24 h): 86.1% | HPLC (%) at 212 nm (after evap.) (ST21: MEK slurry 60° C. 24 h, evaporated at 30° C. 24 h): 55.9% | HPLC (%) at 212 nm (before evap.) 4 h (ST21: MEK, slurry, 60° C.): 65.2% | HPLC (%) at 212 nm (before evap.) 24 h (ST21: MEK, slurry, 60° C.): 94.5% | HPLC (%) at 212 nm (after evap.) (ST22: MEK slurry 60° C. 24 h, evaporated at 60° C. 24 h): 86.6%
Structure (SMILES): C[C@H](CCC(=O)[O-])[C@H]1CC[C@H]2[C@@H]3[C@H](O)C[C@@H]4C[C@H](O)CC[C@]4(C)[C@H]3CC[C@]12C.[Na+] [Form B, sodium chenodeoxycholate]
